# According to article PMC8151276, “An Integrated Approach toward NanoBRET Tracers for Analysis of GPCR Ligand Engagement” (Molecules, 2021):
# Tests used:
# Format in all cases: binding
# CCR1 = molecular target: T1, CCR1 (Homo sapiens, UniProt P32246); assay: NanoBRET screen HiBiT-CCR1 in HEK293
# T1 construct: purchased Promega (in-house HiBiT-GPCR construct library, NanoBRET)
# T1 sequence (P32246 1-355): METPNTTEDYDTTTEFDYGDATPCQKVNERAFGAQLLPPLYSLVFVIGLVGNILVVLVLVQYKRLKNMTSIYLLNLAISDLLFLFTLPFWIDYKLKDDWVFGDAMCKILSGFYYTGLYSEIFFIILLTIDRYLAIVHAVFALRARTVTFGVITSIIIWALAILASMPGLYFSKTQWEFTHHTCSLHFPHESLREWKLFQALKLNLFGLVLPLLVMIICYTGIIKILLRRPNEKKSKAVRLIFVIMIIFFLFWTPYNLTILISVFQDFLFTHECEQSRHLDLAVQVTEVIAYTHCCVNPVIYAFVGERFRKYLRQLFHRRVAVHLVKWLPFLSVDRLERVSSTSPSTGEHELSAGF
# Protocol: (§1) Each tracer candidate was screened across the entire library of HiBiT-GPCR constructs using NanoBRET as the detection modality. As depicted in Figure 4A, the specificity of interactions was evaluated through decrease in BRET due to competitive displacement of a bound tracer by excess parental compound. Each tracer was analyzed for binding to each HiBiT-GPCR fusion in the absence and in the presence of competing parental compound. Briefly, HEK293 cells were transfected with HiBiT-GPCR constructs diluted into promoterless DNA to reduce expression and maximize translocation to the cell surface. Each tracer candidate was then screened at concentrations of 1 μM and 0.1 μM across cells expressing these fusions. Cells were treated for 1.5 h with tracer either alone or in the presence of 20 μM competing parental compound (i.e., control). BRET was measured upon addition of purified LgBiT and subsequent complementation with HiBiT genetically fused to a GPCR. The specificity of interactions was assessed through a decrease in BRET signal due to competitive displacement of the bound tracer. To further gauge the robustness of these interactions, the fold response over the control (i.e., BRETtracer/BRETcontrol) was calculated. We chose a 1.5-fold response, which translates to ≥7-fold signal over noise as the minimal threshold required to score an interaction as positive. […]. Below we highlight the screening results obtained for our exemplary fluorescent tracers based on Clozapine, Amitriptyline and AZD1283.
# (§2) HiBiT-GPCR DNA constructs were diluted in 10 mM Tris pH 8 to a final concentration of 0.01 μg/μL, arrayed in 96-well plates and stored at −20 °C. For transfection, HEK293 cells were suspended in Opti-MEM (without phenol red) supplemented with 2% fetal bovine serum (Seradigm) and 100 units/mL penicillin–streptomycin (Gibco) at a final concentration of 220,000 cells/mL and dispensed into white 96-well plates at 90 μL/well. Subsequent transfections and screens were carried using an Agilent Bravo Automated Liquid Handling Platform. First, the 96-well HiBiT DNA arrays were diluted 25-fold in Opti-MEM (without serum or phenol red) to a final concentration of 0.0004 μg/μL and 20 μL of the diluted DNAs were transferred into new 96-well plates. Next, promoterless carrier DNA (1 μg/μL) was diluted 25-fold (0.04 μg/μL) and then dispensed into the diluted arrays at 20 μL/well. Following brief mixing, Viafect transfection reagent (Promega) diluted 16-fold into Opti-MEM was dispensed into the plates at 40 μL/well. After mixing by pipetting, plates were incubated for 10 min on the pipetting station deck. The DNA-transfection reagent complexes were then added to plates containing cells. To facilitate the screen, 10 μL of DNA-transfection reagent complexes were added in duplicates to the top 4 and bottom 4 rows, resulting in two identical 48-well arrays per plate. Plates with transfected cells were incubated for 18–20 h at 37 °C/5% CO2. A screen of each tracer across the entire library using two different concentrations requires duplicate plates of transfected cells. Depending on the number of tracers being screened, transfections can be scaled up using the same ratios. The next day, for each tracer, four 20× screening solutions in tracer dilution buffer (Promega) were prepared: two duplicates at final concentration of 20 μM and two duplicates at a final concentration of 2 μM. A competing unmodified compound was added to one of each duplicate at a final concentration of 400 μM. The four resulting solutions were diluted 4-fold in Opti-MEM without serum or phenol red to generate 5× solutions (5 µM and 0.5 µM tracer +/− 100 μM competing compound). To screen the library, a BioTek MultiFlo FX liquid dispenser was used to dispense 22.5 µL of tracer solution to the top 4 rows and 22.5 µL tracer + competing compound solution to the 4 bottom rows. Plates were briefly mixed on an orbital shaker and incubated for 1.5 h at room temperature. […]
# CXCR5 = molecular target: T2, CXCR5 (Homo sapiens, UniProt P32302); assay: NanoBRET screen HiBiT-CXCR5 in HEK293
# T2 construct: purchased Promega (in-house HiBiT-GPCR construct library, NanoBRET)
# T2 sequence (P32302 1-372): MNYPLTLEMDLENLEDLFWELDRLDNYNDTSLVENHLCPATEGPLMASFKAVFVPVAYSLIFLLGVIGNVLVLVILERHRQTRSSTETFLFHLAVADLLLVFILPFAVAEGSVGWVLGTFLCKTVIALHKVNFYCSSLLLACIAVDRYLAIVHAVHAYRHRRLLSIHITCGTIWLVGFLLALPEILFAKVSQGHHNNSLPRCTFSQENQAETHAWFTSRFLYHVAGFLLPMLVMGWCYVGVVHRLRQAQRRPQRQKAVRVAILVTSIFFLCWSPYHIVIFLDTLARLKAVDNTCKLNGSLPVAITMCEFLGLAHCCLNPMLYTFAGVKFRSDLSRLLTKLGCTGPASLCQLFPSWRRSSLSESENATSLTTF
# Protocol: as §1, §2
# CCR7 = molecular target: T3, CCR7 (Homo sapiens, UniProt P32248); assay: NanoBRET screen HiBiT-CCR7 in HEK293
# T3 construct: purchased Promega (in-house HiBiT-GPCR construct library, NanoBRET)
# T3 sequence (P32248 25-378): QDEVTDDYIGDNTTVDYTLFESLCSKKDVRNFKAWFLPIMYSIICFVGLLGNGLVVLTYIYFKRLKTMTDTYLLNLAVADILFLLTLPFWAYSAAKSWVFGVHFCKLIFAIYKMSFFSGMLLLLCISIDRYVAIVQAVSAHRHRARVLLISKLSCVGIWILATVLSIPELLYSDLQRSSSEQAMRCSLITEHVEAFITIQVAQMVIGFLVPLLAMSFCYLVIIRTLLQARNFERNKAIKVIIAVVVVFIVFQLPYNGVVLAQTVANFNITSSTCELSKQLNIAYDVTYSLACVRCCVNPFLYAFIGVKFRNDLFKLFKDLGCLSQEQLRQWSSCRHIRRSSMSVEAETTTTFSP
# Protocol: as §1, §2
structure (smiles),measurement,setting,value
CN1CCN(C2=Nc3cc(Cl)ccc3N(CC(=O)NCCOCCOCCOCCOCCNC(=O)CCc3ccc4n3[B-](F)(F)[N+]3=C(c5ccc[nH]5)C=CC3=C4)c3ccccc32)CC1 [Clozapine-c-2-NB590],NanoBRET Fold Response,"CCR1; CCR1, 0.1μM tracer",1.05
same,NanoBRET Fold Response,"CCR1; CCR1, 1μM tracer",0.98
same,NanoBRET Fold Response,"CXCR5; CXCR5, 0.1μM tracer",0.98
same,NanoBRET Fold Response,"CXCR5; CXCR5, 1μM tracer",0.98
same,NanoBRET Fold Response,"CCR7; CCR7, 0.1μM tracer",0.97
same,NanoBRET Fold Response,"CCR7; CCR7, 1μM tracer",1.04
CN(C)CCC=C1c2ccccc2CCc2ccc(C(=O)NCCNC(=O)CCOCCOCCOCCOCCNC(=O)CCc3ccc4n3[B-](F)(F)[N+]3=C(c5ccc[nH]5)C=CC3=C4)cc21 [Amitriptyline-a-2-NB590],NanoBRET Fold Response,CCR1; tracer at 0.1μM,0.99
same,NanoBRET Fold Response,CCR1; tracer at 1μM,1.07
same,NanoBRET Fold Response,CXCR5; tracer at 0.1μM,1.04
same,NanoBRET Fold Response,CXCR5; tracer at 1μM,1.01
same,NanoBRET Fold Response,CCR7; tracer at 0.1μM,1.01
same,NanoBRET Fold Response,CCR7; tracer at 1μM,0.99
Cc1nc2n(c(=O)c1CCN1CCC(c3noc4cc(F)ccc34)CC1)CCCC2OC(=O)NCCOCCOCCOCCOCCNC(=O)CCc1ccc2n1[B-](F)(F)[N+]1=C(c3ccc[nH]3)C=CC1=C2 (stereo not drawn) [Risperidone-2-NB590],NanoBRET Fold Response,"CCR1; CCR1, tracer 0.1μM",1.00
same,NanoBRET Fold Response,"CCR1; CCR1, tracer 1μM",0.99
same,NanoBRET Fold Response,"CXCR5; CXCR5, tracer 0.1μM",1.10
same,NanoBRET Fold Response,"CXCR5; CXCR5, tracer 1μM",0.93
same,NanoBRET Fold Response,"CCR7; CCR7, tracer 0.1μM",1.00
same,NanoBRET Fold Response,"CCR7; CCR7, tracer 1μM",1.04
COc1ccc2[nH]c(-c3ccc(CNC(=O)CCOCCOCCOCCOCCNC(=O)CCc4ccc5n4[B-](F)(F)[N+]4=C(c6ccc[nH]6)C=CC4=C5)cc3)c(CCNC(C)=O)c2n1 [AzomelatoninICO9-2-NB590],NanoBRET Fold Response,CCR1; 0.1μM tracer,1.12
same,NanoBRET Fold Response,CCR1; 1μM tracer,1.21
same,NanoBRET Fold Response,CXCR5; 0.1μM tracer,1.36
same,NanoBRET Fold Response,CXCR5; 1μM tracer,0.90
same,NanoBRET Fold Response,CCR7; 0.1μM tracer,1.02
same,NanoBRET Fold Response,CCR7; 1μM tracer,0.98
COc1ccccc1N1CCN(CCCCN2C(=O)c3ccc(CNC(=O)CCOCCOCCOCCOCCNC(=O)CCc4ccc5n4[B-](F)(F)[N+]4=C(c6ccc[nH]6)C=CC4=C5)cc3C2=O)CC1 [NAN-190-2-NB590],NanoBRET Fold Response,"CCR1; CCR1, tracer 0.1μM",1.01
same,NanoBRET Fold Response,"CCR1; CCR1, tracer 1μM",1.04
same,NanoBRET Fold Response,"CXCR5; CXCR5, tracer 0.1μM",1.01
same,NanoBRET Fold Response,"CXCR5; CXCR5, tracer 1μM",1.00
same,NanoBRET Fold Response,"CCR7; CCR7, tracer 0.1μM",0.97
same,NanoBRET Fold Response,"CCR7; CCR7, tracer 1μM",0.99
O=C(CCc1ccc2n1[B-](F)(F)[N+]1=C(c3ccc[nH]3)C=CC1=C2)NCCOCCOCCNC(=O)OCCOCCN1CCN(C2=Nc3ccccc3Sc3ccccc32)CC1 [Quetiapine-a-2-NB590],NanoBRET Fold Response,"CCR1; CCR1, tracer 0.1μM",0.99
same,NanoBRET Fold Response,"CCR1; CCR1, tracer 1μM",0.99
same,NanoBRET Fold Response,"CXCR5; CXCR5, tracer 0.1μM",1.01
same,NanoBRET Fold Response,"CXCR5; CXCR5, tracer 1μM",0.92
same,NanoBRET Fold Response,"CCR7; CCR7, tracer 0.1μM",1.03
same,NanoBRET Fold Response,"CCR7; CCR7, tracer 1μM",1.01
O=C(CCOCCOCCOCCOCCNC(=O)CCc1ccc2n1[B-](F)(F)[N+]1=C(c3ccc[nH]3)C=CC1=C2)NCCCN1CCN(C2=Nc3cc(Cl)ccc3Nc3ccccc32)CC1 [Clozapine-a-2-NB590],NanoBRET Fold Response,"CCR1; CCR1, 0.1μM tracer",1.03
same,NanoBRET Fold Response,"CCR1; CCR1, 1μM tracer",0.94
same,NanoBRET Fold Response,"CXCR5; CXCR5, 0.1μM tracer",1.06
same,NanoBRET Fold Response,"CXCR5; CXCR5, 1μM tracer",1.01
same,NanoBRET Fold Response,"CCR7; CCR7, 0.1μM tracer",1.01
same,NanoBRET Fold Response,"CCR7; CCR7, 1μM tracer",0.99
